Assay results published in article PMC6571863, “Bioassay-Guided Isolation of Triterpenoids as α-Glucosidase Inhibitors from Cirsium setosum” (Molecules, 2019).

Tested on: α-Glucosidase enzyme (from Saccharomyces cerevisiae)
Test: α-glucosidase inhibitory assay (p-NPG substrate, spectrophotometric)
Type: biochemical
Conditions: mean SD (n = 3); for Inhibition (%): tested concentration of all samples 100 μM; for IC50: α-glucosidase, p-NPG substrate
Method: A total of 200 μL of reaction mixture, containing 70 μL of 0.1 M phosphate buffer (pH 6.8), 10 μL of 1.0 mg/mL reduced glutathione solution, and 10 μL of the sample solution (test concentration at 0.1 mg/mL), was added to each well of a 96-well plate, followed by the addition of 20 μL of 0.5 U/mL α-glucosidase solution. The plate was incubated at 37 °C for 15 min, and then 20 μL of p-Nitrophenyl α-D-glucopyranoside substrate was added to the mixture to start the reaction. The reaction mixture was incubated at 37 °C for 30 min, and then 70 μL of 0.1 M Na2CO3 solution was added to the mixture to terminate the reaction. All samples were analyzed in triplicate with three different concentrations near the IC50 values. The absorbance (A) was immediately recorded at 400 nm, using a spectrophotometrical method to estimate the enzymatic activity. The inhibition percentage was calculated by the following equation: Inhibitory rate (%) = [1 − (Atest − Ablank)/(control Atest − control Ablank)] × 100%.
Here, Atest represents the absorbance value of the experimental sample, Ablank represents the absorbance value of sample blank, control Atest represents the absorbance value of the control, and control Ablank represents the absorbance value of the blank.

Row | Structure (SMILES) | Inhibition (%) | IC50 [µM]
1 | CC1C(COO)=CCC2(C)CCC3(C)C(CCC4C5(C)CCC(O)C(C)(C)C5CCC43C)C12 (stereo not drawn) [Compound 1, 3β-hydroxy-30-hydroperoxy-20-taraxastene] | 99.46 ± 1.04 | 18.3 ± 1.27
2 | CC1=CC(=O)[C@]2(C)CC[C@]3(C)[C@H](CCC4[C@@]5(C)CCC(=O)C(C)(C)C5CC[C@]43C)C2[C@@H]1C (some centres unmarked) [Compound 5, 20-taraxastene-3,22-dione] | 60.78 ± 5.81 | 68.9 ± 1.82
3 | C[C@@H]1C=CC[C@]2(C)CC[C@]3(C)[C@H](CCC4[C@@]5(C)CC[C@H](O)C(C)(C)C5CC[C@]43C)C12 (stereo partly drawn) [Compound 8, 30-nor-3β-hydroxy-20-taraxastene] | 59.19 ± 3.81 | 80.1 ± 2.13
4 | CC1=CC(O)C2(C)CCC3(C)C(CCC4C5(C)CCC(O)C(C)(C)C5CCC43C)C2C1C (stereo not drawn) [Compound 4, 3β,22α-dihydroxy-20-taraxastene] | 94.95 ± 1.67 | 17.5 ± 1.42
5 | CC1=CC(=O)C2(C)CCC3(C)C(CCC4C5(C)CCC(O)C(C)(C)C5CCC43C)C2C1C (stereo not drawn) [Compound 7, 3β-hydroxy-20-taraxasten-22-one] | 95.59 ± 2.34 | 22.7 ± 0.25
6 | C[C@@H]1C=C[C@H](O)[C@]2(C)CC[C@]3(C)[C@H](CCC4[C@@]5(C)CC[C@H](O)C(C)(C)C5CC[C@]43C)C12 (stereo partly drawn) [Compound 3, 30-nor-3β,22α-dihydroxy-20-taraxastene] | 70.34 ± 2.73 | 44.6 ± 1.39
7 | C[C@H]1O[C@H](O[C@H]2[C@H](O)[C@@H](O)[C@@H](O[C@H]3[C@H](O)[C@@H](O)C(O)O[C@@H]3CO)O[C@@H]2CO)[C@H](O)[C@@H](O)[C@@H]1N[C@H]1C=C(CO)[C@@H](O)[C@H](O)[C@H]1O (some centres unmarked) [Acarbose, acarbose, reference compound] | 78.35 ± 3.41 | 
8 | COC1C=C(C)C(C)C2C3CCC4C5(C)CCC(O)C(C)(C)C5CCC4(C)C3(C)CCC12C (stereo not drawn) [Compound 2, 3β-hydroxy-22α-methoxy-20-taraxastene] | 93.29 ± 0.74 | 27 ± 0.89
9 | CC(=O)O[C@H]1CC[C@@]2(C)C(CC[C@]3(C)C2CC[C@@H]2C4[C@H](C)C(C)=CC(=O)[C@]4(C)CC[C@]23C)C1(C)C (stereo partly drawn) [Compound 6, 3β-acetoxy-20-taraxasten-22-one] | 63.06 ± 7.44 | 54.2 ± 2.25
